From ChEMBL document CHEMBL1201862, “PubChem BioAssay data set” (2004)
The source made the active and inactive calls. For most assays here, no stated cut-off is given here; in the data, actives have a measured EC50 and inactives only a lower limit.

Legend:
[1] = A Cell Based Secondary Assay To Explore Cytotoxicity of Compounds that Sensitize Mycobacterium Tuberculosis to Beta-Lactam Antibiotics.; format: functional
Protein skinhead-1 = target: T1, Protein skinhead-1 (Caenorhabditis elegans, UniProt P34707); format: functional
T1 sequence (P34707 whole entry): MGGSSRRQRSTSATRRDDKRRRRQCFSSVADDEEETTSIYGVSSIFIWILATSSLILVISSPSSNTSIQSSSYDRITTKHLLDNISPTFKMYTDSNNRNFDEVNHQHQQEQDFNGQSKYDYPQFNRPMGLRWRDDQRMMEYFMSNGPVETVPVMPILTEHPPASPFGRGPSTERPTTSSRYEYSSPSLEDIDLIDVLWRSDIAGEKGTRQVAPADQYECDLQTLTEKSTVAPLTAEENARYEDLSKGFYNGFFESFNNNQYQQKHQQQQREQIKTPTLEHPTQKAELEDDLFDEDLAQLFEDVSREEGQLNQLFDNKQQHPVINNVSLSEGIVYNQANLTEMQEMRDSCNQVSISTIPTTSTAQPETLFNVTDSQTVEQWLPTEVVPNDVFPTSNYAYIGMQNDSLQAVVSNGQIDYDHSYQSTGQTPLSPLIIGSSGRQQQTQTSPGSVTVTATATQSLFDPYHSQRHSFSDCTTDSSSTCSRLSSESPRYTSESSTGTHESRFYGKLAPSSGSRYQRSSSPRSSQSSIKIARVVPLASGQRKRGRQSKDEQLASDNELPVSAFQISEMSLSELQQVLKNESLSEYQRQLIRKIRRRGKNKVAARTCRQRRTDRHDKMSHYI

[2] = cytotoxicity in HEK-293T cells, dose response, cytotoxicity control for TCR NF-kB inhibitor project, luminescence, T-cell screen hits (AID 489026); format: functional, cell-based;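 further: cells exposed to compound about 14 hours before the viability readout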
BJ [3] = assay: cells; format: functional, cell-based; settings: Homo sapiens
[4] = inhibitors of firefly luciferase expression or activity, dose response, H4 neuroglioma cells, luminescence (AID 1990); format: functional, cell-based
[5] = inhibitors of SNCA 5'UTR-driven reporter translation, confirmation, H4 neuroglioma cells, luminescence (AID 1988); format: functional, cell-based
BJ [6] = assay: cytotoxicity toward BJ-TERT-LT-ST fibroblasts, dose response, cell-based, RAS-independent, luminescence (AID 1935); format: functional; settings: Homo sapiens;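 further: BJ fibroblasts immortalized with TERT plus LT and ST oncogenes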
[7] = cytotoxicity toward DRD oncogenic fibroblasts, dose response, cell-based, non-viral oncogenic, luminescence (AID 1934); format: functional; settings: Homo sapiens
BJ [8] = assay: cytotoxicity toward BJ-TERT fibroblasts, dose response, cell-based, RAS-independent, luminescence (AID 1933); format: functional; settings: Homo sapiens
[9] = Luminescence Cell-Based Dose Response HTS to Identify Inhibitors of 5'UTR Stem-Loop Driven Prion Protein mRNA Translation in H4 Neuroglioblastoma Cells. [Related pubchem assays: 1827 (Project Summary), 1813 (Primary HTS)]; format: functional
Aminopeptidase N = target: T2, Aminopeptidase N (Plasmodium falciparum FcB1/Columbia, UniProt O96935); assay: P. falciparum M1AAP inhibitors, biochemical, fluorogenic H-Leu-NHMec substrate, 1536-well (AID 1445); design: species or system Plasmodium falciparum 3D7, 3D7
T2 sequence (O96935 whole entry): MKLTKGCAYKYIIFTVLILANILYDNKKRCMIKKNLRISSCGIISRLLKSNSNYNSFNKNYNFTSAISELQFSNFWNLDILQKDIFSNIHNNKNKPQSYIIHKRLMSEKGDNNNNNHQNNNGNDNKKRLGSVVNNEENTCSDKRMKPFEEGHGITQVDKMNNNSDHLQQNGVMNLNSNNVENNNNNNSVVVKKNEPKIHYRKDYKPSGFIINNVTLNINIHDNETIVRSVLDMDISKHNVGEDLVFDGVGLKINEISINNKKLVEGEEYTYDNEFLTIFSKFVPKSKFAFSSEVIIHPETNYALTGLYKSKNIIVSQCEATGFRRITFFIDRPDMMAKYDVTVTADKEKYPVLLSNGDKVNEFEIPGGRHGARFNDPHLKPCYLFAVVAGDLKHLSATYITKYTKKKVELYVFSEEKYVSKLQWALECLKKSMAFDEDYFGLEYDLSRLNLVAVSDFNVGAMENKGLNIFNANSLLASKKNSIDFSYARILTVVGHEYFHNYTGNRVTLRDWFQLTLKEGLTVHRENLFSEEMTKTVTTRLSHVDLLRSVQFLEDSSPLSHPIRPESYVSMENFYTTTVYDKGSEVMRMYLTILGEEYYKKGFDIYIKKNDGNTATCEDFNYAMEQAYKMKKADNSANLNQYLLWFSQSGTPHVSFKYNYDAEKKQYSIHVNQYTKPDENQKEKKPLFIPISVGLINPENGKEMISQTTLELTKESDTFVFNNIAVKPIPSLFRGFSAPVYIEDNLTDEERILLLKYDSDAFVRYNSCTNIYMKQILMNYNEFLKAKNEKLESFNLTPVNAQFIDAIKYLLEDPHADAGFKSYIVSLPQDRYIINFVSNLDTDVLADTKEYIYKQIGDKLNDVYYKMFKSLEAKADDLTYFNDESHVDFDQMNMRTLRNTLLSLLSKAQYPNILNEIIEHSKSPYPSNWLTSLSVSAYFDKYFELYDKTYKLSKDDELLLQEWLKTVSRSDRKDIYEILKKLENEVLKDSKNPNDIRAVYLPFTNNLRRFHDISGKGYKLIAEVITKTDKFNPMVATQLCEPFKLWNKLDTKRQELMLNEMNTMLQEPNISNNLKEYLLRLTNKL

[10] = target: T3, Heat shock factor protein 1 (Mus musculus, UniProt P38532); assay: HSF1 potentiators in luciferase reporter cells, confirmation, cell-based, NIH3T3, luminescence, dose retest (AID 435004); format: functional;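 further: stress induced by proteasome inhibitor MG132 added 30 min after compound; luciferase reporter driven by HSF1 response element in NIH3T3 cells; actives raise luminescence as potentiators of the MG132 stress response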
T3 sequence (P38532 whole entry): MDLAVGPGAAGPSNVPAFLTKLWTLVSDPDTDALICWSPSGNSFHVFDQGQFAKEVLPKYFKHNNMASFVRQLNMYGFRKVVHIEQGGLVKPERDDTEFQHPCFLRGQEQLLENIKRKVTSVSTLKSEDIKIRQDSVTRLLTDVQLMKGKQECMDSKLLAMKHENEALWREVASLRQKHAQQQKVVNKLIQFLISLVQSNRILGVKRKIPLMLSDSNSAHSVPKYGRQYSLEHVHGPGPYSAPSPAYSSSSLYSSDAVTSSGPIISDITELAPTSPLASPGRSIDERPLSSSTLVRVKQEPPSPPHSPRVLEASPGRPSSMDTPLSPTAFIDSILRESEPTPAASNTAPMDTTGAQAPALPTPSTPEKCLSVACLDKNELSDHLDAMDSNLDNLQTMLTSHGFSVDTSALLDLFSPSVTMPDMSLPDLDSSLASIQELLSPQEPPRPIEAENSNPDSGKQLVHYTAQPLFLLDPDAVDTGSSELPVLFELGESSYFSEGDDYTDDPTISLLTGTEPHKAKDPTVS

INS1 = assay: beta cell apoptosis inhibitors, cytokine rescue, dose response, luminescence, retest (AID 449756); format: functional, cell-based; settings: Rattus norvegicus;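 further: cell death triggered by IL-1 beta plus TNF-alpha plus IFN-gamma mixture; protective hits raise ATP signal compared with cytokine alone wells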

C[C@H](NC(=O)c1[nH]cnc1C(=O)Nc1ccc(Cl)cc1)C(=O)OC(C)(C)C
CC50 [1]: 16.7 µM (active) | IC50 (Protein skinhead-1): > 100 µM (inactive)

COc1cc(CC(=O)OCC(=O)c2ccc3c(c2)OCCO3)cc(OC)c1OC
IC50 [2]: > 80 µM (inactive) | EC50 (BJ [3]): 15.1 µM (active) | EC50 [4]: 5.8 µM (inconclusive) | EC50 [5]: 4.99 µM (inconclusive) | EC50 (BJ [6]): 1.62 µM (inconclusive) | EC50 [7]: 2.47 µM (active) | EC50 (BJ [8]): 2.14 µM (active) | EC50 [9]: 5.66 µM (active)

Cc1c(O)c(CN2CCCC2)cc2c3c(c(=O)oc12)CCC3
IC50 (Aminopeptidase N): 42.6 µM (active)

COC(=O)Cc1c(C)c2ccc(O)c(CN3CCCC(C)C3)c2oc1=O (stereo not drawn)
IC50 (Aminopeptidase N): 30 µM (active)

O=C1N=C(Nc2nc3ccccc3[nH]2)c2ccccc21
EC50 (BJ [3]): 24.8 µM (inconclusive) | EC50 (BJ [6]): 19.3 µM (active) | EC50 [10]: 0.987 µM (inconclusive) | EC50 [7]: 14.9 µM (active) | AC50 (INS1): 3 µM (active) | EC50 (BJ [8]): 12.5 µM (active)
